Results from the supplement of paper PMC9663587.

Experiments:
Neratinib/HKI272 [1] = compound: T1, CCOc1cc2ncc(C#N)c(Nc3ccc(OCc4ccccn4)c(Cl)c3)c2cc1NC(=O)/C=C/CN(C)C [Neratinib/HKI272]; assay: increase in dead-cell fraction, 72 h; higher = more death;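 note: breast cancer cell lines in 384-well plates, stained with Hoechst plus LIVE/DEAD far red dye and imaged, cells above an LDR intensity threshold counted dead, Hoechst-negative corpses included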
[2] = compound: CCc1cnn2c(NCc3ccc[n+]([O-])c3)cc(N3CCCC[C@H]3CCO)nc12; assay: as above
LEE011/Ribociclib = compound: CN(C)C(=O)c1cc2cnc(Nc3ccc(N4CCNCC4)cn3)nc2n1C1CCCC1 [LEE011/Ribociclib]; assay: as above
[3] = compound: CCN1CCN(Cc2ccc(Nc3ncc(F)c(-c4cc(F)c5nc(C)n(C(C)C)c5c4)n3)nc2)CC1; assay: as above
[4] = compound: CC(=O)c1c(C)c2cnc(Nc3ccc(N4CCNCC4)cn3)nc2n(C2CCCC2)c1=O; assay: as above
Flavopiridol = compound: CN1CC[C@H](c2c(O)cc(O)c3c(=O)cc(-c4ccccc4Cl)oc23)[C@H](O)C1 [Flavopiridol]; assay: as above
THZ531 = compound: CN(C)C/C=C/C(=O)Nc1ccc(C(=O)N2CCC[C@@H](Nc3ncc(Cl)c(-c4c[nH]c5ccccc45)n3)C2)cc1 [THZ531]; assay: as above
THZ1 [5] = compound: T2, CN(C)C/C=C/C(=O)Nc1ccc(C(=O)Nc2cccc(Nc3ncc(Cl)c(-c4c[nH]c5ccccc45)n3)c2)cc1 [THZ1]; assay: as above
YKL-5-124 = compound: C=CC(=O)Nc1ccc(C(=O)Nc2[nH]nc3c2CN(C(=O)N[C@H](CN(C)C)c2ccccc2)C3(C)C)cc1 [YKL-5-124]; assay: as above
BSJ-03-123 = compound: CC(=O)c1c(C)c2cnc(Nc3ccc(N4CCN(CCOCCOCCOCCNC(=O)COc5cccc6c5C(=O)N(C5CCC(=O)NC5=O)C6=O)CC4)cn3)nc2n(C2CCCC2)c1=O [BSJ-03-123]; assay: as above
Neratinib/HKI272 [6] = compound: T1, Neratinib/HKI272; assay: GR value, 72 h; higher = faster growth (1 = untreated, <0 = killing);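 note: breast cancer and non-malignant breast epithelial lines, nine half-log doses, viable cells counted by Hoechst and LIVE/DEAD dye imaging versus time-zero plates and DMSO controls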
THZ1 [7] = compound: T2, THZ1; assay: as above

## MDAMB175VII
Neratinib/HKI272 [1]; 0.0003162 µM
  increase in dead-cell fraction: -0.0063
Neratinib/HKI272 [1]; 0.001 µM
  increase in dead-cell fraction: -0.0069
Neratinib/HKI272 [1]; 0.003162 µM
  increase in dead-cell fraction: 0.0132
Neratinib/HKI272 [1]; 0.01 µM
  increase in dead-cell fraction: 0.0578
Neratinib/HKI272 [1]; 0.03162 µM
  increase in dead-cell fraction: 0.214
Neratinib/HKI272 [1]; 0.1 µM
  increase in dead-cell fraction: 0.276
Neratinib/HKI272 [1]; 0.3162 µM
  increase in dead-cell fraction: 0.406
Neratinib/HKI272 [1]; 1 µM
  increase in dead-cell fraction: 0.44
Neratinib/HKI272 [1]; 3.162 µM
  increase in dead-cell fraction: 0.49
[2]; 0.0001 µM
  increase in dead-cell fraction: -0.004
[2]; 0.0003162 µM
  increase in dead-cell fraction: -0.0015
[2]; 0.001 µM
  increase in dead-cell fraction: -0.0018
[2]; 0.003162 µM
  increase in dead-cell fraction: -0.0039
[2]; 0.01 µM
  increase in dead-cell fraction: 0.001
[2]; 0.03162 µM
  increase in dead-cell fraction: 0.116
[2]; 0.1 µM
  increase in dead-cell fraction: 0.0618
[2]; 0.3162 µM
  increase in dead-cell fraction: 0.0494
[2]; 1 µM
  increase in dead-cell fraction: 0.0562
LEE011/Ribociclib; 0.001 µM
  increase in dead-cell fraction: 0.0066
LEE011/Ribociclib; 0.003162 µM
  increase in dead-cell fraction: 0.0124
LEE011/Ribociclib; 0.01 µM
  increase in dead-cell fraction: 0.0047
LEE011/Ribociclib; 0.03162 µM
  increase in dead-cell fraction: 0.0118
LEE011/Ribociclib; 0.1 µM
  increase in dead-cell fraction: 0.0182
LEE011/Ribociclib; 0.3162 µM
  increase in dead-cell fraction: 0.0102
LEE011/Ribociclib; 1 µM
  increase in dead-cell fraction: 0.0154
LEE011/Ribociclib; 3.162 µM
  increase in dead-cell fraction: 0.0181
LEE011/Ribociclib; 10 µM
  increase in dead-cell fraction: 0.0148
[3]; 0.001 µM
  increase in dead-cell fraction: -0.0013
[3]; 0.003162 µM
  increase in dead-cell fraction: -0.0015
[3]; 0.01 µM
  increase in dead-cell fraction: 0.0094
[3]; 0.03162 µM
  increase in dead-cell fraction: 0.0188
[3]; 0.1 µM
  increase in dead-cell fraction: 0.0085
[3]; 0.3162 µM
  increase in dead-cell fraction: 0.013
[3]; 1 µM
  increase in dead-cell fraction: 0.0044
[3]; 3.162 µM
  increase in dead-cell fraction: 0.0131
[3]; 10 µM
  increase in dead-cell fraction: 0.0317
[4]; 0.0003162 µM
  increase in dead-cell fraction: 0.0035
[4]; 0.001 µM
  increase in dead-cell fraction: 0.0034
[4]; 0.003162 µM
  increase in dead-cell fraction: -0.0018
[4]; 0.01 µM
  increase in dead-cell fraction: 0.0077
[4]; 0.03162 µM
  increase in dead-cell fraction: 0.0116
[4]; 0.1 µM
  increase in dead-cell fraction: 0.0214
[4]; 0.3162 µM
  increase in dead-cell fraction: 0.0115
[4]; 1 µM
  increase in dead-cell fraction: 0.0097
[4]; 3.162 µM
  increase in dead-cell fraction: 0.0212
Flavopiridol; 0.0001 µM
  increase in dead-cell fraction: -0.0018
Flavopiridol; 0.0003162 µM
  increase in dead-cell fraction: -0.0019
Flavopiridol; 0.001 µM
  increase in dead-cell fraction: 0.0003
Flavopiridol; 0.003162 µM
  increase in dead-cell fraction: 0.0018
Flavopiridol; 0.01 µM
  increase in dead-cell fraction: 0.0067
Flavopiridol; 0.03162 µM
  increase in dead-cell fraction: -0.0026
Flavopiridol; 0.1 µM
  increase in dead-cell fraction: 0.0081
Flavopiridol; 0.3162 µM
  increase in dead-cell fraction: 0.0294
Flavopiridol; 1 µM
  increase in dead-cell fraction: 0.0685
THZ531; 0.0001 µM
  increase in dead-cell fraction: 0.0053
THZ531; 0.0003162 µM
  increase in dead-cell fraction: 0.0019
THZ531; 0.001 µM
  increase in dead-cell fraction: 0.0075
THZ531; 0.003162 µM
  increase in dead-cell fraction: 0.0041
THZ531; 0.01 µM
  increase in dead-cell fraction: 0.0043
THZ531; 0.03162 µM
  increase in dead-cell fraction: 0.0033
THZ531; 0.1 µM
  increase in dead-cell fraction: 0.105
THZ531; 0.3162 µM
  increase in dead-cell fraction: 0.231
THZ531; 1 µM
  increase in dead-cell fraction: 0.0668
THZ1 [5]; 0.0001 µM
  increase in dead-cell fraction: 0.0012
THZ1 [5]; 0.0003162 µM
  increase in dead-cell fraction: -0.0011
THZ1 [5]; 0.001 µM
  increase in dead-cell fraction: -0.0032
THZ1 [5]; 0.003162 µM
  increase in dead-cell fraction: -0.0005
THZ1 [5]; 0.01 µM
  increase in dead-cell fraction: 0.0034
THZ1 [5]; 0.03162 µM
  increase in dead-cell fraction: 0.0153
THZ1 [5]; 0.1 µM
  increase in dead-cell fraction: 0.0349
THZ1 [5]; 0.3162 µM
  increase in dead-cell fraction: 0.0573
THZ1 [5]; 1 µM
  increase in dead-cell fraction: 0.0912
YKL-5-124; 0.001 µM
  increase in dead-cell fraction: 0.0167
YKL-5-124; 0.003162 µM
  increase in dead-cell fraction: 0.0032
YKL-5-124; 0.01 µM
  increase in dead-cell fraction: 0.0173
YKL-5-124; 0.03162 µM
  increase in dead-cell fraction: 0.0139
YKL-5-124; 0.1 µM
  increase in dead-cell fraction: 0.0095
YKL-5-124; 0.3162 µM
  increase in dead-cell fraction: 0.0149
YKL-5-124; 1 µM
  increase in dead-cell fraction: 0.0069
YKL-5-124; 3.162 µM
  increase in dead-cell fraction: 0.0133
YKL-5-124; 10 µM
  increase in dead-cell fraction: 0.285
BSJ-03-123; 0.001 µM
  increase in dead-cell fraction: 0.0049
BSJ-03-123; 0.003162 µM
  increase in dead-cell fraction: 0.0003
BSJ-03-123; 0.01 µM
  increase in dead-cell fraction: 0.0001
BSJ-03-123; 0.03162 µM
  increase in dead-cell fraction: 0.0082
BSJ-03-123; 0.1 µM
  increase in dead-cell fraction: 0.0009
BSJ-03-123; 0.3162 µM
  increase in dead-cell fraction: 0.0035
BSJ-03-123; 1 µM
  increase in dead-cell fraction: 0.0093
BSJ-03-123; 3.162 µM
  increase in dead-cell fraction: 0.009
BSJ-03-123; 10 µM
  increase in dead-cell fraction: 0.0139
Neratinib/HKI272 [6]; 0.0003162 µM
  GR value: 0.753 GR
Neratinib/HKI272 [6]; 0.001 µM
  GR value: 0.53 GR
Neratinib/HKI272 [6]; 0.003162 µM
  GR value: 0.138 GR
Neratinib/HKI272 [6]; 0.01 µM
  GR value: -0.551 GR
Neratinib/HKI272 [6]; 0.03162 µM
  GR value: -0.848 GR
Neratinib/HKI272 [6]; 0.1 µM
  GR value: -0.905 GR
Neratinib/HKI272 [6]; 0.3162 µM
  GR value: -0.932 GR
Neratinib/HKI272 [6]; 1 µM
  GR value: -0.949 GR
Neratinib/HKI272 [6]; 3.162 µM
  GR value: -0.983 GR
THZ1 [7]; 0.0001 µM
  GR value: 0.829 GR
THZ1 [7]; 0.0003162 µM
  GR value: 1.05 GR
THZ1 [7]; 0.001 µM
  GR value: 1.01 GR
THZ1 [7]; 0.003162 µM
  GR value: 0.843 GR
THZ1 [7]; 0.01 µM
  GR value: 0.736 GR
THZ1 [7]; 0.03162 µM
  GR value: 0.515 GR
THZ1 [7]; 0.1 µM
  GR value: -0.0075 GR
THZ1 [7]; 0.3162 µM
  GR value: -0.159 GR
THZ1 [7]; 1 µM
  GR value: -0.44 GR
